# Test results as given in patent publication US20030008234A1, “Optical data carrier comprising a cyanine dye as light-absorbent compound in the information layer” (priority 2001, published 2003).
# Test: Solubility in TFP (2,2,3,3-tetrafluoropropanol)
# Type: physicochemical
row,Solubility,SMILES
1,5%,CCN1CCS/C1=C/c1sc2ccccc2[n+]1C
2,> 2%,CC(C)N(c1nn(C)/c(=N/C=C/C2=[N+](C)c3ccccc3C2(C)C)s1)C(C)C [Example 1]
3,5%,CCN1CCS/C1=C/c1sc2ccccc2[n+]1C.[I-] [Example 2]
